Assay results as given in patent US20240327392A1, “HETEROCYCLOALKYL-SUBSTITUTED POLYHETEROAZOLE DERIVATIVES AS MEDICAMENTS FOR TREATING AND/OR PREVENTING RS VIRUS INFECTIONS” (ALBIUS SCIENCES ALPHA PRIVATE LIMITED, priority 2021, published 2024).
pIC50: −log10 of the molar value.

What follows are molecules tested on human RS virus A2 strain (assay: In vitro test for anti-RS virus proliferation inhibitory activity (quantitative RT-PCR of RS virus RNA copy number in infected Vero cells)). Settings: 72 h; Vero cells infected with human RS virus A2 strain, 3 days of incubation, RS virus RNA copy number by quantitative RT-PCR; read-out: Anti-RS virus Activity.
Assay type: cell-based
Method in brief: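 Vero cells infected with RSV A2 (1.7×10^4 TCID50/mL in inoculum mix) with compound in 10% FCS EMEM, 3 days at 37 °C, 5% CO2. Lysate viral N-gene RNA quantified by one-step SYBR qRT-PCR; copy number by comparative Ct relative to untreated infected cells.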

| Compound | pIC50 |
| --- | --- |
| COc1ccc(C(=O)NCc2noc([C@@H]3CCCCN3S(=O)(=O)C3CCCCC3)n2)cc1OC [Compound 27B, (S)—N-((5-(1-(cyclohexylsulfonyl)piperidin-2-yl)-1,2,4-oxadiazol-3-yl)methyl)-3,4-dimethoxybenzamide] | 4.30 to 5.00 |
| O=S(=O)(C1CCOCC1)N1CC(CC2CCC2)CC1c1nc(CCCc2ccccc2)no1 (centres unmarked) [Compound 6AP, 5-(4-(cyclobuthylmethyl)-1-((tetrahydro-2H-pyran-4-yl)sulfonyl)pyrrolidin-2-yl)-3-(3-phenylpropyl)-1,2,4-oxadiazole] | > 5.00 |
| O=S(=O)(N1CCCC[C@H]1c1nc(CCCc2ccccc2)no1)C12CC3CC(CC(C3)C1)C2 [Compound 2AG, 5-((S)-1-((adamantan-1-yl)sulfonyl)piperidin-2-yl)-3-(3-phenylpropyl)-1,2,4-oxadiazole] | 4.30 to 5.00 |
| CC(C)(C)OC(=O)N1C[C@H](c2ccccc2)C[C@H]1c1nc(CCc2ccccc2)no1 [Compound C2-7-1, Tert-butyl (2S,4S)-2-(3-phenethyl-1,2,4-oxadiazol-5-yl)-4-phenylpyrrolidine-1-carboxylate] | 4.30 to 5.00 |
| O=S(=O)(c1ccccc1)N1C[C@H](F)C[C@H]1c1nc(CCCc2ccccc2)no1 [Compound 8D, 3-(3-phenylpropyl)-5-[(2S,4R)-1-benzenesulfonyl-4-fluoropyrrolidin-2-yl]-1,2,4-oxadiazole] | 4.30 to 5.00 |
